In patent publication US20240156872A1, “Use of Chaperone-Mediated Autophagy Activators For Treating Or Preventing Blood Cancers And Myelodysplastic Syndromes And Enriching Hematopoietic Stem Cell Populations” (ALBERT EINSTEIN COLLEGE OF MEDICINE, priority 2021, published 2024):

How the values were obtained:
[1] = system: CMA in HSC from KFERQ-Dendra mice; assay: KFERQ-Dendra CMA reporter in HSC after in vivo activation; parameters: species or system mouse
From the text: Mice. Hematopoietic system specific L2A KO mice were created by crossing C57BL/6 Vav-iCre mice with C57BL/6 L2Af/f mice. […] For the aging studies, 3-4 months (labeled as 4 m) and 25-30 m (labeled as >25 m) male mice were used in the young and old group, respectively. KFERQ-Dendra2 transgenic mice and KFERQ-Dendra mice defective in CMA (KFERQ-Dendra-L2AKO) were generated as described before. […] Young and old controls were similarly injected with tamoxifen. […] KFERQ-Dendra mice with extra copy of human L2A (KFERQ-Dendra-hL2AOE) were generated by breeding KFERQ-Dendra male mice with hL2AOE mice. […] Bone marrow was analyzed at the same times. Data is from the analysis 8 days post-injection, unless otherwise specified. For serial 5FU injections, mice were injected every week and 7 days post injection blood was taken and blood counts measured as above and dead mice and time of death were registered. […] The CMA activator (CA 20 mg/Kg b.w. per mouse day for 2 months) was administered orally in the form of sucralose gelatin agar pills.
Immunofluorescence staining. HSC or myeloid progenitor cells were directly sorted into 16-well slides pre-coated with Cell-Tak Cell Tissue Adhesive (Coming, 354240) and then fixed with 4% PFA for 15 min at room temperature (RT). For LAMP2A, LAMP1, total human LAMP2 and FADS2 staining, slides were washed with PBS and incubated with blocking buffer (5% goat serum/0.3% TrionX-100 in PBS) for 1 hour at RT and incubated ovemight at 4° C. with the first antibody diluted in 1% BSA/0.3% TritonX-100 followed by 40 min incubation at RT with fluorescence-conjugated secondary antibodies. Cells were washed 3 times with PBS and mounted with mounting medium with DAPI (Southern biotech). […] Oxidized proteins were detected with OxyICC Oxidized Protein Detection Kit from Sigma (S7350) and protein inclusions were detected with PROTEOSTAT Aggresome detection kit from ENZO (ENZ-51035) following manufacturer's instructions. […] For analysis of CMA activity using direct fluorescence and the KFERQ-Dendra CMA reporter, cells isolated from KFERQ-Dendra2 transgenic mice were fixed with 2% PFA for 5 min at RT and mounted for direct puncta counting or subjected for immunofluorescence as described above. Quantification was performed in TIFF converted images upon thresholding using the 3D object counter tool of Image J software (NIH). Average number of puncta per cell was determined for each of the cells in a field and at least 3 different fields per animal were counted. Where indicated, we also calculated the percentage of cells active for CMA, defined as those with at least two Dendra positive puncta. […] CMA flux was calculated as the increase in number of Dendra positive puncta upon leupeptin treatment. […]

[2] = system: Bead sorted CD34+ MNC from patients over 55 years of age; assay: FACS quantification of phenotypical HSC (HSPCs) in CD34+ MNC after 72 hours in HSC maintenance cultures; assay type: cell-based, human; conditions: for long-term HSCs (LT-HSC; CD90+, CD49f+, CD34+, CD38−, Lin-): short term ex vivo culture vs vehicle (FIG. 17)
Procedure: FIG. 15. Representative FACS data and gating strategy. Bead sorted CD34+ MNC from patients over 55 years of age were treated with compounds 77.1, 77.43, 77.36, B13, B19 or vehicle control for 72 hours in HSC maintenance cultures. The experimental readout is quantification of phenotypical HSC (HSPCs) by FACS analysis. […] Results also identified a positive trend in HSC number from a HC derived specimen.

Ctrl and L2AKO HSC = assay: Colony formation and serial re-plating assay with Ctrl and L2AKO HSC with supplemented media; assay type: cell-based, mouse
From the text: Colony formation and serial re-plating assays. […] Colonies were scored after 10 to 12 days for mouse and 14 to 16 days for human cells using an Inverted Infinity and Phase Contrast Microscope (Fisher Scientific).

HSC from old (22 m) mice = conditions: daily injections of GLA (1mg/kg bw) for 7 weeks vs saline
Procedure: Mice. […] For the aging studies, 3-4 months (labeled as 4 m) and 25-30 m (labeled as >25 m) male mice were used in the young and old group, respectively. […] For GLA supplementation, old mice (>25 m) were injected with either saline or GLA (1mg/kg bw) for 40 days.
Colony formation and serial re-plating assays. Sorted mouse HSC (180 cells Lin−/cKit+/Scal+/CD48−/CD150+) or CD34-enriched human HSPC (5,000 cells) were plated into methylcellulose media ([sequence] Technologies, MethoCult M 3434 for mouse or MethoCult H4434 for human) according to the manufacturer's protocols. Colonies were scored after 10 to 12 days for mouse and 14 to 16 days for human cells using an Inverted Infinity and Phase Contrast Microscope (Fisher Scientific). […] Where indicated, media was supplemented with 100 nM FADS2 inhibitor SC-26196 (Sigma, PZ0176), 100 μM γ-linolenic fatty acid (GLA) (Sigma, L2378), 100 μtM NAC (Sigma, A7250) or 5 mM Methyl-pyruvate (Sigma, 371173).

[3] = system: human CD34+ cells from old (>65 year) multi-myeloma patients; conditions: CD34+ cells from old (>65 years) patients, ex vivo GLA
From the text: Human hematopoietic stem and progenitor cells. Mobilized peripheral blood from multiple myeloma patients (59-71 years old) was enriched for mononuclear cells by density gradient centrifugation using Ficoll-Paque PLUS (GE Healthcare). Mono-nuclear cells were further enriched for CD34+ cells using immunomagnetic bead sorting (CD34 MicroBead Kit, human; Miltenyi Biotec) according to the manufacturer's protocol. The isolated CD34+cells were then used for LTC-IC or colony formation assays. LTC-IC assay. To assess LTC-IC frequencies, serial dilutions of FACS-sorted mouse Lin-Sca-l+c-Kit+ (LSK) cells or CD34+enriched human HSPCs were plated in MyeloCult [MUT] for mouse or MyeloCult [MUT] for human ([sequence] Technologies) mixed at 50:50 ratio with primary mouse stroma cell-conditioned medium or with HS5-conditioned medium for human cells. For each cell dose (1:10, 1:20, 1:40, 1:80, 1:160 for mouse LSK cells, 1:50, 1:100, 1:200, 1:400, 1:800 for human HSPC), 10 technical replicates were performed. […] For CFU-C counting, in the case of mouse samples, wells containing any type of colonies were scored as positive, while in the case of human samples, only wells with GEMM colonies were scored as positive. […]

O=c1[nH]cc(F)c(=O)[nH]1 [5FU, 5-fluorouracil]
time of CMA returning to basal levels in HSC ([1]; after 5FU injection): 16 days
time of maximal CMA upregulation in HSC ([1]; after 5FU injection): 8 days
CMA activity in HSC (Dendra puncta per cell) ([1]; after single injection of 5FU): further upregulate CMA

CC(=O)Nc1ccc(-c2cnc3cc(Cl)ccc3n2)cc1 [CA77.1, N-(4-(6-chloroquinoxalin-2-yl)phenyl)acetamide]
number of phenotypical HSCs by FACS ([2]; AML patient derived specimen, 72 hours vs vehicle): detectable and significant increase in HSCs
long-term HSCs (LT-HSC; CD90+, CD49f+, CD34+, CD38−, Lin-) [2]: significantly more long-term HSCs (LT-HSC) than vehicle

Clc1ccc2nc(-c3ccc(Nc4cnccn4)cc3)cnc2c1 [CA77.36, N-(4-(6-chloroquinoxalin-2-yl)phenyl)pyrazin-2-amine]
long-term HSCs (LT-HSC; CD90+, CD49f+, CD34+, CD38−, Lin-) [2]: significantly more long-term HSCs (LT-HSC) than vehicle

Cc1nnc(-c2ccc(-c3cnc4cc(Cl)ccc4n3)cc2)[nH]1 [CA77.43, 6-chloro-2-(4-(5-methyl-4H-1,2,4-triazol-3-yl)phenyl)quinoxaline]
long-term HSCs (LT-HSC; CD90+, CD49f+, CD34+, CD38−, Lin-) [2]: significantly more long-term HSCs (LT-HSC) than vehicle

CCCCC/C=C\C/C=C\C/C=C\CCCCC(=O)O [GLA, γ-linolenic acid]
self-renewal capacity of CMA-defective (L2AKO) HSC (colony numbers) (Ctrl and L2AKO HSC; L2AKO HSC, GLA supplemented media, ex vivo): restored their self-renewal capacity ex vivo
HSC function by colony formation (HSC from old (22 m) mice): improved HSC function as assessed by colony formation
number of functional human stem cells in long-term cultures (LTC-IC) [3]: increased the number of functional human stem cells in long-term cultures

CC(=O)N[C@@H](CS)C(=O)O [NAC, N-acetylcysteine]
long-term colony initiation abilities of L2AKO HSC (total colony numbers in 3rd plating) (Ctrl and L2AKO HSC; L2AKO HSC, NAC from the 1st plating): restored their ex vivo long-term colony initiation abilities

N#CC(CCCN1CCN(/N=C/c2cccnc2)CC1)(c1ccccc1)c1ccccc1 [SC-26196]
self-renewal ability of control HSC (colony numbers) (Ctrl and L2AKO HSC; control cells, 100 nM FADS2 inhibitor SC-26196, first plating): sufficient to reduce self-renewal ability of control cells

polyI:C
CMA activity in HSC (Dendra puncta per cell) ([1]; 48 hours after injection of PolyI:C vs vehicle): upregulated CMA
